This note sets out measurements from the NIST ThermoML archive (doi:10.1007/s10765-012-1159-3).

± gives the expanded uncertainty stated by the source.

For this data set the following is noted: 101.33 kPa, Liquid; for kinematic viscosity: Capillary tube (Ostwald / Ubbelohde) method; for mass density: Vibrating tube method.

As a reminder, the mass density is the mass of a sample divided by its volume. Take `C1CCCCC1` [cyclohexane]: where the note is “293.15 K”, the kinematic viscosity came out at 1.256e-06 ± 1.1e-08 m2/s and the mass density turned out to be 778.7 ± 0.6 kg/m3. Where the note is “298.15 K”, the kinematic viscosity is 1.154e-06 ± 1e-08 m2/s and the mass density came out at 773.9 ± 0.6 kg/m3.
On the same counts, the results for `CCc1ccccc1` [ethylbenzene] are 7.767e-07 ± 7.4e-09 m2/s, 867.1 ± 0.6 kg/m3, 7.323e-07 ± 7.2e-09 m2/s and 862.7 ± 0.6 kg/m3.
On the same counts, the results for `CCCCCC` [hexane] are 4.7e-07 ± 5.6e-09 m2/s, 659.4 ± 0.6 kg/m3, 4.49e-07 ± 5.5e-09 m2/s and 654.9 ± 0.6 kg/m3.
Consider `CCCCCCCC` [octane], for which, where the note is “293.15 K”, the kinematic viscosity was 7.734e-07 ± 7.4e-09 m2/s and the mass density stood at 702.5 ± 0.6 kg/m3. Besides, where the note is “298.15 K”, the kinematic viscosity worked out at 7.313e-07 ± 7.1e-09 m2/s and the mass density is 698.5 ± 0.6 kg/m3.
Take `Cc1ccccc1` [toluene]: for the setting “293.15 K”, the kinematic viscosity was 6.8e-07 ± 6.8e-09 m2/s and the mass density is given as 866.7 ± 0.6 kg/m3. Also, under “298.15 K”, the kinematic viscosity is 6.41e-07 ± 6.6e-09 m2/s and the mass density stood at 862 ± 0.6 kg/m3.
